The test system of assay [1] is ULK kinase substrate ATG13 (pS318-ATG13) in MiaPaCa-2 cells. The assay is described as follows: pATG13 levels of mutant KRas MiaPaCa-2 cells after treatment with ULK inhibitors in combination with trametinib (ELISA). It counts as cell-based, human. The essentials:
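MiaPaCa-2 cells grown overnight, then dosed with test compound titration plus trametinib (final 250 nM) or DMSO, overnight at 37° C. Lysate pS318-ATG13 measured by sandwich ELISA (total ATG13 capture, biotinylated pS318 detection, HRP/TMB, A450 minus A540); % phosphorylation vs control wells fitted to IC50.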
For orientation: ELISA stands for enzyme-linked immunosorbent assay.

Assay [2] has as its target T1, LRRK2 kinase (Homo sapiens, UniProt Q5S007).
T1 construct: (residues 970-2528; ID NO; 3); purchased Thermo Fisher
The assay is described as follows: Biochemical assay for LRRK2 (coupled pyruvate kinase/lactate dehydrogenase assay). Particulars: 26.4 nM LRRK2, 1 mM ATP; read-out: LRRK2 (inhibition of LRRK2 kinase activity, IC50).

This note sets out measurements from US20240150368A1, “ULK INHIBITORS AND METHODS OF USE THEREOF” (Deciphera Pharmaceuticals, LLC, priority 2022, published 2024).

In general, IC50 refers to the concentration at which inhibition is half-maximal.

T1 sequence (Q5S007 with tags, fused parts or gaps): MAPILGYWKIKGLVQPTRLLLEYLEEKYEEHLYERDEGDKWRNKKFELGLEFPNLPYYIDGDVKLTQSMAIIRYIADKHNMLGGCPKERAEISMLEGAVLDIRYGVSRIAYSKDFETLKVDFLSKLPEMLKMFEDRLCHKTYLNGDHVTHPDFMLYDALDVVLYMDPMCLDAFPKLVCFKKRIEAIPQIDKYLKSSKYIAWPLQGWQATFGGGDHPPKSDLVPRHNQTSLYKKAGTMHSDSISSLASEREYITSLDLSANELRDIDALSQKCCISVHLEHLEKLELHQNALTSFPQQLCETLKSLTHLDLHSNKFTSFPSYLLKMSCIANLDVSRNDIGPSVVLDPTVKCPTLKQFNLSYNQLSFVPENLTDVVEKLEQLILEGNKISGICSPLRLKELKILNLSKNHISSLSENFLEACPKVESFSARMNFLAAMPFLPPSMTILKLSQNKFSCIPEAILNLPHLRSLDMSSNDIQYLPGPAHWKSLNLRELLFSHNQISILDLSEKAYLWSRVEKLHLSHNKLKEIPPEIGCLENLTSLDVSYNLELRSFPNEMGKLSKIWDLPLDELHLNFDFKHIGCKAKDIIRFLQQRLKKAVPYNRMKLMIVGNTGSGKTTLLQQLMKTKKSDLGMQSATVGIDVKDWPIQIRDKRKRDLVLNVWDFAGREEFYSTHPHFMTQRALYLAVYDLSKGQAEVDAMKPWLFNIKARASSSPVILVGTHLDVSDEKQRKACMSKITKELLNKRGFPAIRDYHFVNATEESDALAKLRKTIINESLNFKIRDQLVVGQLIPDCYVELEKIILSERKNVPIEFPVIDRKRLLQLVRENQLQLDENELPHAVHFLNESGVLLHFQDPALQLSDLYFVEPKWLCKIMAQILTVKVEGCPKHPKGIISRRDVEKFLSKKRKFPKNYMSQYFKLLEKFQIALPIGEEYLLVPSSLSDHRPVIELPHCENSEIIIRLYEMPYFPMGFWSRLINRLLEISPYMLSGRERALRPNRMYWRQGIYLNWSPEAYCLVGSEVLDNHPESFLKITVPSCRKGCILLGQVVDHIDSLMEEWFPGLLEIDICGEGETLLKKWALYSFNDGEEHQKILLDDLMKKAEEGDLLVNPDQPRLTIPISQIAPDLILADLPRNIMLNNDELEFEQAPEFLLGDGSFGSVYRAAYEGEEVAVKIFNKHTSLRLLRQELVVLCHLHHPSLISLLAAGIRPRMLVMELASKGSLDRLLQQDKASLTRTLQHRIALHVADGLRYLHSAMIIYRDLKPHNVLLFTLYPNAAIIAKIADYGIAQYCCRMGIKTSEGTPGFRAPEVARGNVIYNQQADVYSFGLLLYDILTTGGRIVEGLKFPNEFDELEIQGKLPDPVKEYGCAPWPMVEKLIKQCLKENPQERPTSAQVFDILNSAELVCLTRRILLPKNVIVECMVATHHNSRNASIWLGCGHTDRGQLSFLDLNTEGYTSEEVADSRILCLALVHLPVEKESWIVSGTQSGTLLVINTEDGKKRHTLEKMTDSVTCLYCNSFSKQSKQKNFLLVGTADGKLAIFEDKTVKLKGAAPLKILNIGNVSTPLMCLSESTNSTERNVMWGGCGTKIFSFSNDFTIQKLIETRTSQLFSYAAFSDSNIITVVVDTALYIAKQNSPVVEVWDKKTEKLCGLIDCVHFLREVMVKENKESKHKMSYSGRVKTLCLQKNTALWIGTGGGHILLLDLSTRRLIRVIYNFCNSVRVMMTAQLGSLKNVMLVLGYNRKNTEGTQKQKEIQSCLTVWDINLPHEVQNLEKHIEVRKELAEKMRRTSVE

On to `CC/C(Nc1cnn(C2CCN(C(C)C)CC2)c1)=C1/C(=O)Nc2ccc(C(=O)NC[C@H]3CCCO3)cc21` [Example 1, (R,Z)-3-(1-((1-(1-isopropylpiperidin-4-yl)-1H-pyrazol-4-yl)amino)propylidene)-2-oxo-N-((tetrahydrofuran-2-yl)methyl)indoline-5-carboxamide], for which the IC50 in assay [1] was at most 100 nM; in assay [2] it was 100 to 300 nM. As to `CC/C(Nc1ccc(N2C[C@H]3CN(C)C[C@H]3C2)cc1)=C1/C(=O)Nc2ccc(C(=O)NCC(C)C)cc21` [Example 63], the IC50 in assay [1] is at most 100 nM.

For the compound `CC/C(Nc1ccc(N2C[C@H]3CN(C)C[C@H]3C2)cc1)=C1/C(=O)Nc2ccc(C(=O)NC[C@H]3CCCO3)cc21` [Example 64], the IC50 in assay [1] was at most 100 nM.

Regarding `CC/C(Nc1ccc(N2CC3(CN(C)C3)C2)cc1)=C1/C(=O)Nc2ccc(C(=O)NCC(C)C)cc21` [Example 65], the IC50 in assay [1] is at most 100 nM. `CC/C(Nc1ccc(N2CC3(CN(C)C3)C2)cc1)=C1/C(=O)Nc2ccc(C(=O)NC[C@H]3CCCO3)cc21` [Example 66]: the IC50 in assay [1] is at most 100 nM.

Take `CC/C(Nc1ccc(N2CC3CC(C2)N3C)cc1)=C1/C(=O)Nc2ccc(C(=O)NCC(C)C)cc21` [Example 67]: the IC50 in assay [1] is at most 100 nM. On the same count and under the same terms, to `CC/C(Nc1ccc(N2CC3CC(C2)N3C)cc1)=C1/C(=O)Nc2ccc(C(=O)NC[C@H]3CCCO3)cc21` [Example 68] belongs at most 100 nM.

Take `CC/C(Nc1ccc(N2CC3CC2CN3C)cc1)=C1/C(=O)Nc2ccc(C(=O)NCC(C)C)cc21` (centres unmarked) [Example 69]: the IC50 in assay [1] is at most 100 nM.

For `CC/C(Nc1ccc(N2CC3CC2CN3C)cc1)=C1/C(=O)Nc2ccc(C(=O)NC[C@H]3CCCO3)cc21` (some centres unmarked) [Example 70], the half-inhibitory concentration (IC50) in assay [1] was at most 100 nM. For the compound `CC/C(Nc1ccc(N2CC3CC2CN3C)cc1)=C1/C(=O)Nc2ccc(C(=O)NCC(F)(F)F)cc21` (centres unmarked) [Example 71], in assay [1], the IC50 is at most 100 nM. `CC/C(Nc1ccc(N2CCN(C)CC2)nc1)=C1/C(=O)Nc2ccc(C(=O)NCC(F)(F)F)cc21` [Example 74]: the IC50 in assay [1] is at most 100 nM.

Consider `CC/C(Nc1ccc(N2CCN(C)CC2)cn1)=C1/C(=O)Nc2ccc(C(=O)NCC(F)(F)F)cc21` [Example 75], for which the IC50 in assay [1] and in assay [2] was at most 100 nM in each case. For `CC/C(Nc1cnn(C)c1)=C1/C(=O)Nc2ccc(C(=O)NCC(F)(F)F)cc21` [Example 77], the IC50 in assay [1] and in assay [2] was at most 100 nM throughout. `CC/C(Nc1ccc(-c2nc(C)no2)cc1)=C1/C(=O)Nc2ccc(C(=O)NCC(F)(F)F)cc21` [Example 78]: the values for the 50% inhibitory concentration (IC50) in assay [1] and in assay [2] were 100 to 300 nM and at most 100 nM, respectively. Consider `CC/C(Nc1ccc(-c2cn(C)nn2)cc1)=C1/C(=O)Nc2ccc(C(=O)NCC(F)(F)F)cc21` [Example 79], for which the IC50 in assay [1] is at most 100 nM.

Regarding `CC/C(Nc1cnn(C2CCN(C(C)C)CC2)c1)=C1/C(=O)Nc2ccc(C(=O)NC[C@H]3CC(F)(F)CO3)cc21` [Example 80], the IC50 in assay [1] is at most 100 nM. For `CC/C(Nc1cnn(C2CCN(C(C)C)CC2)c1)=C1/C(=O)Nc2ccc(C(=O)NCCOC(F)(F)F)cc21` [Example 82], the IC50 in assay [1] is at most 100 nM. With `CC/C(Nc1cnn(C2CCN(C(C)C)CC2)c1)=C1/C(=O)Nc2ccc(C(=O)NC[C@H]3CCCCO3)cc21` [Example 83], in assay [1], the IC50 was at most 100 nM. As for `CC/C(Nc1cnn(C2CC3(C2)CN(C)C3)c1)=C1/C(=O)Nc2ccc(C(=O)NCC(F)(F)F)cc21` [Example 84], the IC50 in assay [1] and in assay [2] was at most 100 nM in each case.

Take `CC/C(Nc1ccc(N2CC3(COC3)C2)cc1)=C1/C(=O)Nc2ccc(C(=O)NCC(F)(F)F)cc21` [Example 85]: the IC50 was 100 to 300 nM in assay [1] and at most 100 nM in assay [2]. Taken in the same sequence, the figures for `CC/C(Nc1cnn(C2CN(C)C2)c1)=C1/C(=O)Nc2ccc(C(=O)NCC(F)(F)F)cc21` [Example 86] were at most 100 nM and 100 to 300 nM.

As for `CC/C(Nc1cnn(C2CN(C)C2)c1)=C1/C(=O)Nc2ccc(C(=O)NCC(C)C)cc21` [Example 87], the half-maximal inhibitory concentration (IC50) in assay [1] was at most 100 nM. On to `CC/C(Nc1cnn(C2CN(C3CCC3)C2)c1)=C1/C(=O)Nc2ccc(C(=O)NC[C@H]3CCCO3)cc21` [Example 88], for which, in assay [1], the IC50 was at most 100 nM.

Consider `CC/C(Nc1cnn(C2CN(C)C2)c1)=C1/C(=O)Nc2ccc(C(=O)NCCOC)cc21` [Example 89], for which, in assay [1], the IC50 fell in the range of 100 to 300 nM. On to `CC/C(Nc1cnn(C2CN(CC)C2)c1)=C1/C(=O)Nc2ccc(C(=O)NC[C@H]3CCCO3)cc21` [Example 90], for which the IC50 in assay [1] is at most 100 nM. Take `CC/C(Nc1cnn(C2CN(C(C)C)C2)c1)=C1/C(=O)Nc2ccc(C(=O)NC[C@H]3CCCO3)cc21` [Example 91]: the IC50 in assay [1] is at most 100 nM.

With `CC/C(Nc1ccc(N2CCN(C(C)C)CC2)cn1)=C1/C(=O)Nc2cc(F)c(C(=O)NCC(F)(F)F)cc21` [Example 92], the IC50 was at most 100 nM in assay [1] and 300 to 600 nM in assay [2].
